For ten compounds, TGI results are on record in PubChem BioAssay (NCI).

Test systems include MALME-3M melanoma; A549 NSCLC; EKVX NSCLC; U251 CNS; NCI-H522 lung; SW-620 colon; HCT-116 colon; NCI/ADR-RES ovarian; IGROV1 ovarian; SNB-19 CNS; UACC-62 melanoma; MDA-MB-435; MDA-N; HS 578T breast.
What all share (experiment): NCI tumour cell line growth inhibition, 48 h

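48-hour exposure; five concentrations; linearly interpolated endpoints. TGI marks complete inhibition of growth.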

With `Cn1c(N)c(/C=C/C(=O)Oc2ccccc2)c(=O)n(C)c1=O`, the TGI with MALME-3M melanoma, in the experiment with A549 NSCLC, in the experiment on EKVX NSCLC, in the experiment on U251 CNS, with NCI-H522 lung and in the experiment on SW-620 colon was greater than 100 µM each time. Also, the TGI with HCT-116 colon, in the experiment on NCI/ADR-RES ovarian, in the experiment on IGROV1 ovarian, in the experiment with SNB-19 CNS, in the experiment with UACC-62 melanoma and in the experiment on MDA-MB-435 was greater than 100 µM throughout. Moreover, the TGI with MDA-N and with HS 578T breast was greater than 100 µM throughout.

Turning to `CC(=O)c1cccc(Nc2nc3ccccc3c3[nH]c4ccccc4c23)c1`, the TGI in the experiment with MALME-3M melanoma was 13.2 µM; in the experiment on A549 NSCLC, 15.3 µM; in the experiment with EKVX NSCLC, 21.4 µM; in the experiment on U251 CNS it was 16.4 µM; in the experiment with NCI-H522 lung, 8.11 µM; with SW-620 colon, greater than 100 µM. In addition, the TGI in the experiment on HCT-116 colon is greater than 100 µM; in the experiment with NCI/ADR-RES ovarian it was greater than 100 µM; in the experiment with IGROV1 ovarian, 22.3 µM; with SNB-19 CNS it was greater than 100 µM; with UACC-62 melanoma, 5.71 µM; in the experiment on MDA-MB-435, 71.1 µM. Besides, the TGI in the experiment on MDA-N and in the experiment with HS 578T breast was greater than 100 µM throughout.

Regarding `CC1(C)CCC[C@@]2(C)C1CC[C@@]1(CO1)[C@@H]2/C=C\C(C=O)CC=O` (some centres undefined), the TGI in the experiment with MALME-3M melanoma, in the experiment with A549 NSCLC, in the experiment with EKVX NSCLC, in the experiment on U251 CNS, in the experiment on NCI-H522 lung and with SW-620 colon was greater than 100 µM throughout. Besides, the TGI in the experiment with HCT-116 colon, in the experiment with NCI/ADR-RES ovarian, in the experiment with IGROV1 ovarian, with SNB-19 CNS, in the experiment on UACC-62 melanoma and in the experiment on MDA-MB-435 was greater than 100 µM throughout. Moreover, the TGI in the experiment with MDA-N and in the experiment on HS 578T breast was greater than 100 µM in each case.

`Cc1ccc(CN2CCN(Cc3ccc(C)o3)C(C)C2)o1` (centres undefined): the TGI in the experiment on MALME-3M melanoma, in the experiment on A549 NSCLC, in the experiment with EKVX NSCLC, in the experiment with U251 CNS, in the experiment with NCI-H522 lung and with SW-620 colon was greater than 100 µM each time. Further, the TGI in the experiment with HCT-116 colon, with NCI/ADR-RES ovarian, in the experiment on IGROV1 ovarian, with SNB-19 CNS, with UACC-62 melanoma and in the experiment on MDA-MB-435 was greater than 100 µM throughout. For the same compound, the TGI in the experiment on MDA-N and in the experiment on HS 578T breast was greater than 100 µM each time.

`Cc1cc(S(=O)(=O)NC2=NCC(C)(C)CN2)c(S)cc1Cl`: the TGI with MALME-3M melanoma is greater than 100 µM; with A549 NSCLC it was 49.7 µM; with EKVX NSCLC it was greater than 100 µM; in the experiment on U251 CNS it was 89 µM; in the experiment on NCI-H522 lung it was 81.2 µM; with SW-620 colon, 36.8 µM. Further, the TGI in the experiment with HCT-116 colon is 75.8 µM; in the experiment on NCI/ADR-RES ovarian, greater than 100 µM; in the experiment with IGROV1 ovarian it was greater than 100 µM; in the experiment on SNB-19 CNS, greater than 100 µM; with UACC-62 melanoma it was 61.9 µM; with MDA-MB-435, 85.1 µM. Also, the TGI in the experiment with MDA-N came out at 83.4 µM; in the experiment with HS 578T breast it was 87.6 µM.

With `Cc1ccc(O)c(C2=NNC(c3cccc(Cl)c3)C2)c1` (centres undefined), the TGI was greater than 100 µM in the experiment with MALME-3M melanoma; greater than 100 µM in the experiment on A549 NSCLC; greater than 100 µM in the experiment with EKVX NSCLC; greater than 100 µM with U251 CNS; 53.6 µM with NCI-H522 lung; greater than 100 µM in the experiment with SW-620 colon. For the same compound, the TGI in the experiment on HCT-116 colon is greater than 100 µM; with NCI/ADR-RES ovarian, greater than 100 µM; with IGROV1 ovarian it was 48.8 µM; in the experiment with SNB-19 CNS it was 55.8 µM; in the experiment with UACC-62 melanoma, greater than 100 µM; in the experiment with MDA-MB-435 it was 44.5 µM. The TGI is 88.1 µM in the experiment on MDA-N and 86.3 µM in the experiment on HS 578T breast.

`COc1cc(C(=O)OC2CC34CCNC35CC(OC5(OC)C2O)c2cc3c(cc24)OCO3)ccc1O` (centres undefined): the TGI in the experiment on MALME-3M melanoma, with A549 NSCLC, in the experiment with EKVX NSCLC, in the experiment on U251 CNS, in the experiment with NCI-H522 lung and in the experiment on SW-620 colon was greater than 100 µM throughout. Moreover, the TGI in the experiment on HCT-116 colon, with NCI/ADR-RES ovarian, with IGROV1 ovarian, in the experiment with SNB-19 CNS, in the experiment with UACC-62 melanoma and in the experiment on MDA-MB-435 was greater than 100 µM in each case. Besides, the TGI in the experiment with MDA-N and in the experiment with HS 578T breast was greater than 100 µM in each case.

On to `CC(C)(C)NC(=S)N/N=C/c1ccccn1`, for which the TGI in the experiment with MALME-3M melanoma is greater than 100 µM; in the experiment with A549 NSCLC, greater than 100 µM; in the experiment with EKVX NSCLC, greater than 100 µM; in the experiment on U251 CNS, greater than 100 µM; in the experiment with NCI-H522 lung it was greater than 86.9 µM; in the experiment with SW-620 colon it was greater than 100 µM. For the same compound, the TGI was 1.02 µM in the experiment on HCT-116 colon; greater than 100 µM with NCI/ADR-RES ovarian; greater than 100 µM in the experiment with IGROV1 ovarian; greater than 100 µM in the experiment with SNB-19 CNS; 37.3 µM in the experiment with UACC-62 melanoma; greater than 100 µM with MDA-MB-435. For the same compound, the TGI in the experiment on MDA-N and in the experiment on HS 578T breast was greater than 100 µM throughout.

`COC(=O)C1=COC2OC3CC1C2C(C)O3` (centres undefined): the TGI in the experiment on MALME-3M melanoma, with A549 NSCLC, with EKVX NSCLC, with U251 CNS, in the experiment on NCI-H522 lung and with SW-620 colon was greater than 100 µM each time. Moreover, the TGI in the experiment on HCT-116 colon, in the experiment with NCI/ADR-RES ovarian, with IGROV1 ovarian, in the experiment with SNB-19 CNS, in the experiment on UACC-62 melanoma and in the experiment with MDA-MB-435 was greater than 100 µM each time. Moreover, the TGI in the experiment on MDA-N and in the experiment with HS 578T breast was greater than 100 µM in each case.

On to `Cc1ccc2c(c1)CC1(C2)Cc2ccc(C)cc2C1=O` (centres undefined), for which the TGI with MALME-3M melanoma is 43.8 µM; in the experiment with A549 NSCLC, greater than 100 µM; in the experiment on EKVX NSCLC it was 88.7 µM; with U251 CNS, greater than 100 µM; in the experiment on NCI-H522 lung it was 61.3 µM; with SW-620 colon it was greater than 100 µM. The TGI in the experiment on HCT-116 colon was 71.9 µM; with NCI/ADR-RES ovarian it was 62.6 µM; with IGROV1 ovarian, greater than 100 µM; in the experiment on SNB-19 CNS, greater than 100 µM; with MDA-MB-435 it was greater than 100 µM; in the experiment on MDA-N it was 73.1 µM. Further, the TGI in the experiment on HS 578T breast is greater than 100 µM.
